By Ki is commonly meant the dissociation constant of the complex between target and ligand, obtained from inhibition or displacement. By IC50 is commonly meant the concentration needed to halve the response being measured.

In patent publication US11298363B2, “Triazolobenzazepines as vasopressin V1a receptor antagonists” (RICHTER GEDEON NYRT., priority 2017, dated 2022) one finds Ki, IC50 and inhibition data, which are given here for 27 molecules.

Counter-ions that a name gives are not always drawn.

The target in assay [1] is T1, human vasopressin V1a receptor (Homo sapiens, UniProt P37288). The assay is described as follows: Human vasopressin V1a receptor binding assay. The following applies: 1321N1 cell membranes, [3H]vasopressin; read-out: Ki (nM) on hV1a cell line. The essentials:
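Ki values come from IC50 via Cheng-Prusoff (KD from prior Scatchard), averaged over at least two independent runs. Human V1a membranes were incubated with radioligand 60 minutes at 27° C., bound ligand collected by filtration; (Arg^8)-vasopressin at 1.2×10^−6 M defined non-specific binding.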

Assay [2] concerns the target T1, human vasopressin V1a receptor. As to the kind of experiment: Functional assay on human vasopressin V1a receptor expressing cell line (intracellular Ca2+ fluorescence). The note with it: for IC50: 1321N1 cells, (Arg8)-vasopressin at EC80, read-out: IC50 (nM) on hV1a cell line. It counts as cell-based.

T1 sequence (P37288 whole entry): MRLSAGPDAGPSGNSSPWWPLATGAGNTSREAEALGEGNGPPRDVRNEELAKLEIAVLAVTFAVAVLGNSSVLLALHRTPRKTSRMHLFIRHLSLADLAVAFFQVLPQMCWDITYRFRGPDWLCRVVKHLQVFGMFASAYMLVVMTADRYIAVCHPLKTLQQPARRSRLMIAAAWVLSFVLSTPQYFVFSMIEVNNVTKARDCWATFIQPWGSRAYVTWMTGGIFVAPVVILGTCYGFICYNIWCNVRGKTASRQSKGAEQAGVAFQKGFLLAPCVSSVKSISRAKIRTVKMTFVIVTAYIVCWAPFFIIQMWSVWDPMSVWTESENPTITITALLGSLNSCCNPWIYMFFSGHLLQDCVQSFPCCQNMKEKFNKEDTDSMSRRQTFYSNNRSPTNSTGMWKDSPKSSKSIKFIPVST

In the case of `O=C(N[C@@H]1Cc2cc(Cl)ccc2-n2c(nnc2[C@H]2CC[C@H](Oc3ccccn3)CC2)C1)C1CCC1` [Example 125, N-{(5R)-8-chloro-1-[trans-4-(pyridin-2-yloxy)cyclohexyl]-5,6-dihydro-4H-[1,2,4]triazolo[4,3-a][1]benzazepin-5-yl}cyclobutanecarboxamide], the Ki in assay [1] came out at 0.8 nM. Further, the half-inhibitory concentration (IC50) in assay [2] was determined as 2.3 nM.
Taken in the same sequence, the figures for `NC1Cc2ccccc2-n2c(nnc2[C@H]2CC[C@H](Oc3ccccn3)CC2)C1` (stereo partly drawn) [Example 144, 1-[trans-4-(pyridin-2-yloxy)cyclohexyl]-5,6-dihydro-4H-[1,2,4]triazolo[4,3-a][1]benzazepin-5-amine] were 34 nM and 168 nM.
Taken in the same sequence, the figures for `CCO[C@]1(CC)CC[C@@H](c2nnc3n2-c2ccc(Cl)cc2CC(N(C)C)C3)CC1` (stereo partly drawn) [Example 245, 8-chloro-1-(trans-4-ethoxy-4-ethylcyclohexyl)-N,N-dimethyl-5,6-dihydro-4H-[1,2,4]triazolo[4,3-a][1]benzazepin-5-amine] were 7 nM and 130 nM.
Regarding `O=C(CO)NC1Cc2cc(Cl)ccc2-n2c(nnc2[C@H]2CC[C@H](Oc3ccccn3)CC2)C1` (stereo partly drawn) [Example 15, N-{8-chloro-1-[trans-4-(pyridin-2-yloxy)cyclohexyl]-5,6-dihydro-4H-[1,2,4]triazolo[4,3-a][1]benzazepin-5-yl}-2-hydroxyacetamide], the Ki in assay [1] stood at 0.4 nM. Further, the IC50 in assay [2] was 3.7 nM.
Regarding `CCC(C)C(=O)N[C@H]1Cc2cc(Cl)ccc2-n2c(nnc2[C@H]2CC[C@H](Oc3ccccn3)CC2)C1` (stereo partly drawn) [Example 152], in assay [1], the Ki was 67 nM. In assay [2], the IC50 came to 737 nM.
In the case of `COC1Cc2cc(Cl)ccc2-n2c(nnc2C2CCN(Cc3cccnc3)C2)C1` (stereo not drawn) [Example 184, 8-chloro-5-methoxy-1-[1-(pyridin-3-ylmethyl)pyrrolidin-3-yl]-5,6-dihydro-4H-[1,2,4]triazolo[4,3-a][1]benzazepine], in assay [1], the Ki turned out to be 0.6 nM. The IC50 in assay [2] was determined as 25 nM.
With `O=C1Cc2cc(C(F)(F)F)ccc2-n2c(nnc2[C@H]2CC[C@H](Oc3ccccn3)CC2)C1` [Example 48, 1-[trans-4-(pyridin-2-yloxy)cyclohexyl]-8-(trifluoromethyl)-4H-[1,2,4]triazolo[4,3-a][1]benzazepin-5(6H)-one], the Ki in assay [1] came to 18 nM. Moreover, the IC50 in assay [2] amounted to 340 nM.
Take `NC1Cc2cc(Br)ccc2-n2c(nnc2[C@H]2CC[C@H](C(F)(F)F)CC2)C1` (stereo partly drawn) [Example 45, 8-bromo-1-[trans-4-(trifluoromethyl)cyclohexyl]-5,6-dihydro-4H-[1,2,4]triazolo[4,3-a][1]benzazepine-5-amine]: in assay [1], the Ki is 38 nM. Also, in assay [2], the IC50 was 870 nM.
In the same order, the values of `CC(=O)N[C@@H]1Cc2cc(Cl)ccc2-n2c(nnc2[C@H]2CC[C@H](Oc3ccccn3)CC2)C1` [Example 168, N-{(5R)-8-chloro-1-[trans-4-(pyridin-2-yloxy)cyclohexyl]-5,6-dihydro-4H-[1,2,4]triazolo[4,3-a][1]benzazepin-5-yl}acetamide] are 0.4 nM and 0.8 nM.
For `COC1Cc2cc(Cl)ccc2-n2c(nnc2[C@H]2CC[C@@H](N3CCCC3=O)CC2)C1` (stereo partly drawn) [Example 218, 1-[cis-4-(8-chloro-5-methoxy-5,6-dihydro-H-[1,2,4]triazolo[4,3-a][1]benzazepin-1-yl)cyclohexyl]pyrrolidin-2-one], in assay [1], the Ki is 97 nM. In addition, the IC50 in assay [2] was 1250 nM.
Taken in the same sequence, the figures for `CCC[C@]1(OC)CC[C@H](c2nnc3n2-c2ccc(Cl)cc2CC2(C3)OCCO2)CC1` [Example 242, 8′-chloro-1′-(trans-4-methoxy-4-propylcyclohexyl)-4′H,6′H-spiro[1,3-dioxolane-2,5′-[1,2,4]triazolo 4,3a][1]benzoepin] were 0.5 nM and 1.8 nM.
Taken in the same sequence, the figures for `Cc1ccc2c(c1)CC(N)Cc1nnc([C@H]3CC[C@H](Oc4ccccn4)CC3)n1-2` (stereo partly drawn) [Example 37, 8-methyl-1-[trans-4-(pyridin-2-yloxy)cyclohexyl]-5,6-dihydro-4H-[1,2,4]triazolo[4,3-a][1]benzazepine-5-amine] were 7 nM and 100 nM.
Taken in the same sequence, the figures for `NC1Cc2cc(F)ccc2-n2c(nnc2[C@H]2CC[C@H](Oc3ccccn3)CC2)C1` (stereo partly drawn) [Example 145, 8-fluoro-1-[trans-4-(pyridin-2-yloxy)cyclohexyl]-5,6-dihydro-4H-[1,2,4]triazolo[4,3-a][1]benzazepin-5-amine] were 12.7 nM and 47 nM.
On to `COC1Cc2cc(Cl)ccc2-n2c(nnc2C2CCN([C@H]3CCOC3)CC2)C1` (stereo partly drawn) [Example 175, 8-chloro-5-methoxy-1-{1-[(3S)-tetrahydrofuran-3-yl]piperidin-4-yl}-5,6-dihydro-4H-[1,2,4]triazolo[4,3-a][1]benzazepine], for which the Ki in assay [1] was 50.5 nM. Also, the IC50 in assay [2] stood at 323 nM.
In the case of `NC1Cc2cc(C(F)(F)F)ccc2-n2c(nnc2[C@H]2CC[C@H](Oc3ccccn3)CC2)C1` (stereo partly drawn) [Example 34, 1-[trans-4-(pyridin-2-yloxy)cyclohexyl]-8-(trifluoromethyl)-5,6-dihydro-4H-[1,2,4]triazolo[4,3-a][1]benzazepine-5-amine hydrochloride], the inhibition constant Ki in assay [1] came to 52 nM. Besides, in assay [2], the IC50 was 700 nM.
In the same order, the values of `CS(=O)(=O)CCOC1Cc2cc(Cl)ccc2-n2c(nnc2[C@H]2CC[C@H](Oc3ccccn3)CC2)C1` (stereo partly drawn) [Example 207, 8-chloro-5-[2-(methylsulfonyl)ethoxy]-1-[trans-4-(pyridin-2-yloxy)cyclohexyl]-5,6-dihydro-4H-[1,2,4]triazolo[4,3-a][1]benzazepine] are 0.3 nM and 4.2 nM.
With `CCO[C@]1(C)CC[C@@H](c2nnc3n2-c2ccc(Cl)cc2CC(N(C)C)C3)CC1` (stereo partly drawn) [Example 234, 8-chloro-1-(trans-4-ethoxy-4-methylcyclohexyl)-N,N-dimethyl-5,6-dihydro-4H-[1,2,4]triazolo[4,3-a][1]benzazepin-5-amine], the Ki in assay [1] was found to be 3.8 nM. For the same molecule, the IC50 in assay [2] worked out at 57 nM.
In the same order, the values of `COC1Cc2cc(Cl)ccc2-n2c(nnc2N2CCC3(CC2)OCc2ccccc23)C1` (stereo not drawn) [Example 191, 8-chloro-5-methoxy-1-(1′H,3H-spiro[2-benzofuran-1,4′-piperidin]-1′-yl)-5,6-dihydro-4H-[1,2,4]triazolo[4,3-a][1]benzazepine] are 0.3 nM and 2.9 nM.
In the same order, the values of `Clc1ccc2c(c1)CC1(Cc3nnc(C4CCN(Cc5cccnc5)C4)n3-2)OCCO1` (stereo not drawn) [Example 231, 8′-chloro-1′-[1-(pyridin-3-ylmethyl)pyrrolidin-3-yl]-4′H,6′H-spiro[1,3-dioxolane-2,5′-[1,2,4]triazolo[4,3-a][1]benzazepine]] are 1.1 nM and 5.9 nM.
`CN(C)CC(=O)OC1Cc2cc(Cl)ccc2-n2c(nnc2[C@H]2CC[C@H](Oc3ccccn3)CC2)C1` (stereo partly drawn) [Example 216, 8-chloro-1-[trans-4-(pyridin-2-yloxy)cyclohexyl]-5,6-dihydro-4H-[1,2,4]triazolo[4,3-a][1]benzazepin-5-yl N,N-dimethylglycinate]: in assay [1], the Ki turned out to be 0.7 nM. The IC50 in assay [2] was 1.5 nM.
Taken in the same sequence, the figures for `Clc1ccc2c(c1)C[C@H](NCC1CC1)Cc1nnc([C@H]3CC[C@H](Oc4ccccn4)CC3)n1-2` [Example 199] were 2.2 nM and 23 nM.
Consider `NC1Cc2cc(Br)ccc2-n2c(nnc2[C@H]2CC[C@H](Oc3ccccn3)CC2)C1` (stereo partly drawn) [Example 39, 8-bromo-1-[trans-4-(pyridin-2-yloxy)cyclohexyl]-5,6-dihydro-4H-[1,2,4]triazolo[4,3-a][1]benzazepine-5-amine], for which, in assay [1], the Ki was 1.4 nM. In addition, the IC50 in assay [2] was determined as 8.3 nM.
Turning to `OC1Cc2cc(Cl)ccc2-n2c(nnc2N2CCC3(CC2)OCc2ccccc23)C1` (stereo not drawn) [Example 172, 8-chloro-1-(1′H,3H-spiro[2-benzofuran-1,4′-piperidin]-1′-yl)-5,6-dihydro-4H-[1,2,4]triazolo[4,3-a][1]benzazepin-5-ol], the Ki in assay [1] was determined as 0.7 nM. For the same molecule, the IC50 in assay [2] amounted to 5.6 nM.
Consider `CC(C)(C)OC(=O)NCCN[C@@H]1Cc2cc(Cl)ccc2-n2c(nnc2[C@H]2CC[C@H](Oc3ccccn3)CC2)C1` [Example 228, Tert-butyl [2-({(5R)-8-chloro-1-[trans-4-(pyridin-2-yloxy)cyclohexyl]-5,6-dihydro-4H-[1,2,4]triazolo[4,3-a][1]benzazepin-5-yl}amino)ethyl]carbamate], for which the Ki in assay [1] amounted to 0.8 nM. In assay [2], the IC50 came to 6.1 nM.
Take `CC(C)(C)OC(=O)NC1Cc2cc(Cl)ccc2-n2c(nnc2N2CCC(N3CCCCC3)CC2)C1` (stereo not drawn) [Example 95, Tert-butyl [1-(1,4′-bipiperidin-1′-yl)-8-chloro-5,6-dihydro-4H-[1,2,4]triazolo[4,3-a][1]benzazepin-5-yl]carbaminate]: in assay [1], the Ki was found to be 547 nM. Besides, the inhibition at 1 µM in assay [2] (read-out: % at 1 μM, printed in the column IC50 (nM) on hV1a cell line) was determined as 22%.
Take `COC1Cc2cc(Cl)ccc2-n2c(nnc2C2CCN(C3CCOCC3)CC2)C1` (stereo not drawn) [Example 170, 8-chloro-5-methoxy-1-[1-(tetrahydro-2H-pyran-4-yl)piperidin-4-yl]-5,6-dihydro-4H-[1,2,4]triazolo[4,3-a][1]benzazepine]: the Ki in assay [1] came out at 15.3 nM. Also, in assay [2], the IC50 was 38 nM.
In the same order, the values of `CC(C)NC1Cc2cc(F)ccc2-n2c(nnc2[C@H]2CC[C@H](Oc3ccccn3)CC2)C1` (stereo partly drawn) [Example 146, 8-fluoro-N-(propan-2-yl)-1-[trans-4-(pyridin-2-yloxy)cyclohexyl]-5,6-dihydro-4H-[1,2,4]triazolo[4,3-a][1]benzazepin-5-amine] are 3.2 nM and 78 nM.
